Results taken from patent publication US11753407B2, “Compounds for treating spinal muscular atrophy” (PTC Therapeutics, Inc., priority 2012, dated 2023).

Columns and labels:
[1] = system: SMN2 minigene mRNA (SMN2-A minigene) in HEK293H cells; assay: SMN2 minigene mRNA splicing RT-qPCR assay in cultured cells; type: cell-based, human; conditions: Homo sapiens, HEK293-H; concentration increasing full length SMN2 mRNA 1.5-fold relative to vehicle-treated cells; HEK293H cells with SMN2-A minigene, 24 hours, 7-point concentration data; read-out: EC1.5x for production of full length SMN2 mRNA
Method in brief: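 HEK293H cells stably carrying the SMN2-A minigene were treated for 24 h at 37 °C with a 7-point, 3.16-fold dilution series of compound. Multiplex RT-qPCR measured exon 7-containing minigene FL mRNA against GAPDH, expressed relative to vehicle by modified ΔΔCt; the EC1.5× is the concentration giving a 1.5-fold increase.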

[2] = system: Smn protein in SMA patient fibroblast cells (GM03813); assay: Smn protein assay in cultured cells (SMN HTRF); type: cell-based, human; conditions: SMA patient fibroblast cells, 48 hours; for EC1.5x for Smn protein expression: 7-point concentration curve, SMN HTRF, concentration producing 1.5 times Smn protein vs DMSO vehicle control; for maximum fold (Fold) increase of Smn protein: 7-point concentration data, fold relative to vehicle control
Method in brief: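 SMA patient fibroblasts (5,000 cells/well, DMEM-10% FBS) were treated for 48 h at 37 °C with a 7-point, 3.16-fold dilution series in triplicate. RIPA lysates were probed by HTRF (anti-SMN d2/kryptate, overnight, room temperature), reading 665/620 nm. EC1.5× is the concentration giving 1.5-fold Smn over DMSO vehicle.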

Compound | melting point [°C] | EC (1.5-fold increase) [1] [µM] | EC1.5x for Smn protein expression [2] | maximum fold (Fold) increase of Smn protein [2]
Cc1cn2nc(-c3cc(=O)n4cc(C5=CCN(C)CC5)ccc4n3)cc2cn1 [Compound 484, 2-(6-methylpyrazolo[1,5-a]pyrazin-2-yl)-7-(1-methyl-1,2,3,6-tetrahydropyridin-4-yl)-4H-pyrido[1,2-a]pyrimidin-4-one] | 126 to 128 | < 0.1 | **** (an EC1.5x≤0.3 μM is indicated by four stars (****)) | ***** (a fold increase >1.65 is indicated by five stars (*****))
Cn1ncc2cc(-c3cc(=O)n4cc(N5CCNCC5)ccc4n3)ccc21 [Compound 490, 2-(1-methyl-1H-indazol-5-yl)-7-(piperazin-1-yl)-4H-pyrido[1,2-a]pyrimidin-4-one] | 206 to 208 | < 0.1 | *** (an EC1.5× between >0.3 μM and ≤1 μM is indicated by three stars (***)) | ***** (a fold increase >1.65 is indicated by five stars (*****))
CCN1CC=C(c2ccc3nc(-c4ccc5nc(C)oc5c4)cc(=O)n3n2)CC1 [Compound 493, 7-(1-ethyl-1,2,3,6-tetrahydropyridin-4-yl)-2-(2-methyl-1,3-benzoxazol-6-yl)-4H-pyrimido[1,2-b]pyridazin-4-one] | 205 to 207 | < 0.1 | *** (an EC1.5× between >0.3 μM and ≤1 μM is indicated by three stars (***)) | **** (a fold increase between >1.5 and ≤1.65 is indicated by four stars (****))
Cc1nc2ccc(-c3cc(=O)n4nc(C5CCNCC5)ccc4n3)cc2o1 [Compound 499, 2-(2-methyl-1,3-benzoxazol-6-yl)-7-(piperidin-4-yl)-4H-pyrimido[1,2-b]pyridazin-4-one] | 126 to 128 | < 0.1 | **** (an EC1.5x≤0.3 μM is indicated by four stars (****)) | ***** (a fold increase >1.65 is indicated by five stars (*****))
Cc1nc2ccc(-c3cc(=O)n4nc(C5CCN(C)CC5)ccc4n3)cc2o1 [Compound 500, 2-(2-methyl-1,3-benzoxazol-6-yl)-7-(1-methylpiperidin-4-yl)-4H-pyrimido[1,2-b]pyridazin-4-one] | 272 to 275 | 0.1 to 0.3 | *** (an EC1.5× between >0.3 μM and ≤1 μM is indicated by three stars (***)) | ***** (a fold increase >1.65 is indicated by five stars (*****))
CCN1CCC(c2ccc3nc(-c4ccc5nc(C)oc5c4)cc(=O)n3n2)CC1 [Compound 501, 7-(1-ethylpiperidin-4-yl)-2-(2-methyl-1,3-benzoxazol-6-yl)-4H-pyrimido[1,2-b]pyridazin-4-one] | 284 to 286 | 0.1 to 0.3 | *** (an EC1.5× between >0.3 μM and ≤1 μM is indicated by three stars (***)) | ***** (a fold increase >1.65 is indicated by five stars (*****))
Cc1cn2nc(-c3cc(=O)n4cc(C5CCN(C)CC5)ncc4n3)cc2c(C)n1 [Compound 503, 2-(4,6-dimethylpyrazolo[1,5-a]pyrazin-2-yl)-7-(1-methylpiperidin-4-yl)-4H-pyrazino[1,2-a]pyrimidin-4-one] | 257 to 259 | < 0.1 | **** (an EC1.5x≤0.3 μM is indicated by four stars (****)) | ***** (a fold increase >1.65 is indicated by five stars (*****))
Cn1ncc2cc(-c3cc(=O)n4cc(C5=CCNCC5)ncc4n3)ccc21 [Compound 505, 2-(1-methyl-1H-indazol-5-yl)-7-(1,2,3,6-tetrahydropyridin-4-yl)-4H-pyrazino[1,2-a]pyrimidin-4-one] | 228 to 230 | < 0.1 | **** (an EC1.5x≤0.3 μM is indicated by four stars (****)) | **** (a fold increase between >1.5 and ≤1.65 is indicated by four stars (****))

More lines, main results first:

melting point [°C] | Compound | EC (1.5-fold increase) [1] [µM] | EC1.5x for Smn protein expression [2] | maximum fold (Fold) increase of Smn protein [2]
256 to 258 | Cc1cc2cc(-c3cc(=O)n4cc(N5CCN(C)CC5)ccc4n3)oc2c(C)n1 [Compound 487, 2-(5,7-dimethylfuro[2,3-c]pyridin-2-yl)-7-(4-methylpiperazin-1-yl)-4H-pyrido[1,2-a]pyrimidin-4-one] | 0.1 to 0.3 | **** (an EC1.5x≤0.3 μM is indicated by four stars (****)) | **** (a fold increase between >1.5 and ≤1.65 is indicated by four stars (****))
202 to 204 | Cc1cc2cc(-c3cc(=O)n4cc(N5CCN[C@@H](C)C5)ccc4n3)oc2c(C)n1 [Compound 488, 2-(5,7-dimethylfuro[2,3-c]pyridin-2-yl)-7-[(3S)-3-methylpiperazin-1-yl]-4H-pyrido[1,2-a]pyrimidin-4-one] | < 0.1 | **** (an EC1.5x≤0.3 μM is indicated by four stars (****)) | **** (a fold increase between >1.5 and ≤1.65 is indicated by four stars (****))
194 to 196 | CN1CCN(c2ccc3nc(-c4ccc5c(cnn5C)c4)cc(=O)n3c2)CC1 [Compound 489, 2-(1-methyl-1H-indazol-5-yl)-7-(4-methylpiperazin-1-yl)-4H-pyrido[1,2-a]pyrimidin-4-one] | 0.1 to 0.3 | ** (an EC1.5× between >1 μM and ≤3 μM is indicated by two stars (**)) | **** (a fold increase between >1.5 and ≤1.65 is indicated by four stars (****))
209 to 212 | CN(C)C1CCN(c2ccc3nc(-c4ccc5c(cnn5C)c4)cc(=O)n3c2)CC1 [Compound 491, 7-[4-(dimethylamino)piperidin-1-yl]-2-(1-methyl-1H-indazol-5-yl)-4H-pyrido[1,2-a]pyrimidin-4-one] | 0.3 to 1 | ** (an EC1.5× between >1 μM and ≤3 μM is indicated by two stars (**)) | **** (a fold increase between >1.5 and ≤1.65 is indicated by four stars (****))
264 to 268 | CCN1CCN(c2ccc3nc(-c4cc(Cl)c5nc(C)cn5c4)cc(=O)n3c2)CC1 [Compound 494, 2-(8-chloro-2-methylimidazo[1,2-a]pyridin-6-yl)-7-(4-ethylpiperazin-1-yl)-4H-pyrido[1,2-a]pyrimidin-4-one] | < 0.1 | **** (an EC1.5x≤0.3 μM is indicated by four stars (****)) | **** (a fold increase between >1.5 and ≤1.65 is indicated by four stars (****))
239 to 245 | CCN1CCN(c2ccc3nc(-c4cc(Cl)c5nc(C)cn5c4)cc(=O)n3c2)C[C@H]1C [Compound 495, 2-(8-chloro-2-methylimidazo[1,2-a]pyridin-6-yl)-7-[(3R)-4-ethyl-3-methylpiperazin-1-yl]-4H-pyrido[1,2-a]pyrimidin-4-one] | < 0.1 | **** (an EC1.5x≤0.3 μM is indicated by four stars (****)) | ***** (a fold increase >1.65 is indicated by five stars (*****))
234 to 245 | CCN1CCN(c2ccc3nc(-c4cc(Cl)c5nc(C)cn5c4)cc(=O)n3c2)C[C@@H]1C [Compound 496, 2-(8-chloro-2-methylimidazo[1,2-a]pyridin-6-yl)-7-[(3S)-4-ethyl-3-methylpiperazin-1-yl]-4H-pyrido[1,2-a]pyrimidin-4-one] | < 0.1 | **** (an EC1.5x≤0.3 μM is indicated by four stars (****)) | ***** (a fold increase >1.65 is indicated by five stars (*****))
278 to 281 | Cc1cn2cc(-c3cc(=O)n4cc(N5CCN(C(C)C)[C@H](C)C5)ccc4n3)cc(Cl)c2n1 [Compound 497, 2-(8-chloro-2-methylimidazo[1,2-a]pyridin-6-yl)-7-[(3R)-3-methyl-4-(propan-2-yl)piperazin-1-yl]-4H-pyrido[1,2-a]pyrimidin-4-one] | < 0.1 | *** (an EC1.5× between >0.3 μM and ≤1 μM is indicated by three stars (***)) | **** (a fold increase between >1.5 and ≤1.65 is indicated by four stars (****))
264 to 270 | Cc1cn2cc(-c3cc(=O)n4cc(N5CCN(C(C)C)[C@@H](C)C5)ccc4n3)cc(Cl)c2n1 [Compound 498, 2-(8-chloro-2-methylimidazo[1,2-a]pyridin-6-yl)-7-[(3S)-3-methyl-4-(propan-2-yl)piperazin-1-yl]-4H-pyrido[1,2-a]pyrimidin-4-one] | < 0.1 | **** (an EC1.5x≤0.3 μM is indicated by four stars (****)) | ***** (a fold increase >1.65 is indicated by five stars (*****))
